Assay results from ChEMBL document CHEMBL1201862, “PubChem BioAssay data set” (2004).
The source made the active and inactive calls.

Tests used:
HeLa = assay: HeLa cell cytotoxicity, dose response, cytotoxicity control for MITF activator project, CellTiter-Glo luminescence, cherry-pick samples (AID 540259); format: functional, cell-based; conditions: Homo sapiens
Cysteine protease ATG4B = target: T1, Cysteine protease ATG4B (Homo sapiens, UniProt Q9Y4P1); format: functional;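 note: Fluorescence-based dose-response confirmation assay measuring inhibition of ATG4B activity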
T1 sequence (Q9Y4P1 whole entry): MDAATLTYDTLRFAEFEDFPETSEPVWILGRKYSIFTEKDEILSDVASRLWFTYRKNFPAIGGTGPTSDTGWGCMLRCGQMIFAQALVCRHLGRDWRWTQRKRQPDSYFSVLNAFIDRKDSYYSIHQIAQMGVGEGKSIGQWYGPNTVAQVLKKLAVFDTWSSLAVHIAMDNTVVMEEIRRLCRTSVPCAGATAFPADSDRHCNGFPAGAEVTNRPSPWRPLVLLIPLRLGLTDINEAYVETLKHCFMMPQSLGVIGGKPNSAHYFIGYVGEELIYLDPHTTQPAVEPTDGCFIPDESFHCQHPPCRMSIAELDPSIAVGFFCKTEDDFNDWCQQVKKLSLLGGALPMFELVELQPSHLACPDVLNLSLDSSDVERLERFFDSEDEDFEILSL

Phospholipase A2 = Phospholipase A2 (Homo sapiens, UniProt P04054); format: functional;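 note: confirmatory dose-response counterscreen on phospholipase A2, testing hits that came from an ultra-high-throughput screen for ATG4B inhibitors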
Sequence of Phospholipase A2 (P04054 whole entry): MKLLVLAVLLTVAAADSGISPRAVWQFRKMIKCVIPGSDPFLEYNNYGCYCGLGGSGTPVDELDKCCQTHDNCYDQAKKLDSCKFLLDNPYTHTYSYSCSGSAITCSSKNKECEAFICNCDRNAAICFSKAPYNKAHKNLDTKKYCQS

[1] = target: T2, High affinity choline transporter 1 (Homo sapiens, UniProt Q9GZV3); assay: CHT inhibitors, dose response, cell-based, 5-point CRC, membrane potential dye (AID 504840); format: functional
T2 sequence (Q9GZV3 whole entry): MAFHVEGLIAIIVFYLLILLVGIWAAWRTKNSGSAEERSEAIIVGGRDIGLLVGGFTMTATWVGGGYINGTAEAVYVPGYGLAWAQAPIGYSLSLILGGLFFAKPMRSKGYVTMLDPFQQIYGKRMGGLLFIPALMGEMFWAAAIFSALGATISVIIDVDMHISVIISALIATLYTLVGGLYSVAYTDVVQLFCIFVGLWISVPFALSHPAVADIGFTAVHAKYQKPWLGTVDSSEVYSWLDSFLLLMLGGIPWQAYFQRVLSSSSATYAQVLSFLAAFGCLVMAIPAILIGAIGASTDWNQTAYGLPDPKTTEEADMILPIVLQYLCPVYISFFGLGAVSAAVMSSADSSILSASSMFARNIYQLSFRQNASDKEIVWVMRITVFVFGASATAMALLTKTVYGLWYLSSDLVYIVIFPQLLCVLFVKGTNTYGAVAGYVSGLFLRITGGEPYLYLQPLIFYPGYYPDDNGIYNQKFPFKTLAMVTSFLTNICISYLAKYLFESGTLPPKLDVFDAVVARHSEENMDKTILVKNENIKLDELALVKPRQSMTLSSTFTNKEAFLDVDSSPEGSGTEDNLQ

[2] = target: Glucose-6-phosphate 1-dehydrogenase (Homo sapiens, UniProt P11413); assay: human G6PD enzyme inhibitors, dose response, selectivity assay for P. falciparum G6PD inhibitor project, biochemical, fluorescence (AID 504792); format: functional
Sequence of Glucose-6-phosphate 1-dehydrogenase (P11413 whole entry): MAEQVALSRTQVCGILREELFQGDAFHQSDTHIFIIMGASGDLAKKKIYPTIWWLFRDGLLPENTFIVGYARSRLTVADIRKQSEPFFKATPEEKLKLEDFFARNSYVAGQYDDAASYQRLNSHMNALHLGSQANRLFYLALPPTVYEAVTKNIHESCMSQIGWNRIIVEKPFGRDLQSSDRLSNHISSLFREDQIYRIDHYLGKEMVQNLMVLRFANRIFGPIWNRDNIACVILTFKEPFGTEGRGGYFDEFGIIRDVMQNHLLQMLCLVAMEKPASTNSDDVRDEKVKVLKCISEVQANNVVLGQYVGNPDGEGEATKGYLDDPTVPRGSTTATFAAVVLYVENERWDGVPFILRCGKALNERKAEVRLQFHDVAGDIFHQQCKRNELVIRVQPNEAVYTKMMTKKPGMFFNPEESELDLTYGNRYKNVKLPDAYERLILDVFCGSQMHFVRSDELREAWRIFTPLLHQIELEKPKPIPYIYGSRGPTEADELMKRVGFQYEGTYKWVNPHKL

[3] = NIH-3T3 fibroblast cytotoxicity, dose response, cytotoxicity control, cell-based, fluorescence, Alamar Blue, secondary assay (AID 2327); format: functional;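 note: NIH-3T3 mouse fibroblasts cultured with fluconazole at 8 µg/mL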
[4] = C. albicans growth with fluconazole, confirmation, fluorescence, retest (AID 2467); format: functional, cell-based
HEK293 = assay: inhibitors of LMP1-driven NF-kB reporter, dose response, cell-based, HEK293, luciferase, cherry-pick (AID 588343); format: functional; conditions: Homo sapiens
INS1 = assay: beta cell apoptosis inhibitors, cytokine rescue, dose response, luminescence, retest (AID 449756); format: functional, cell-based; conditions: Rattus norvegicus;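 note: cell death triggered by IL-1 beta plus TNF-alpha plus IFN-gamma mixture; protective hits raise ATP signal compared with cytokine alone wells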
[5] = growth suppression of beta-catenin-knockout colon cells, dose response, cell-based, HCT116, human colon tumor (AID 1045); format: functional;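 note: HCT116 colon tumor cells with beta catenin knocked out; cells exposed to compound for 60 hours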
[6] = target: T3, Calpain-2 catalytic subunit (Sus scrofa, UniProt P43367); assay: pig calpain II inhibitor potency, dose response, biochemical, fluorogenic peptide substrate (AID 1420); format: functional
T3 sequence (P43367 whole entry): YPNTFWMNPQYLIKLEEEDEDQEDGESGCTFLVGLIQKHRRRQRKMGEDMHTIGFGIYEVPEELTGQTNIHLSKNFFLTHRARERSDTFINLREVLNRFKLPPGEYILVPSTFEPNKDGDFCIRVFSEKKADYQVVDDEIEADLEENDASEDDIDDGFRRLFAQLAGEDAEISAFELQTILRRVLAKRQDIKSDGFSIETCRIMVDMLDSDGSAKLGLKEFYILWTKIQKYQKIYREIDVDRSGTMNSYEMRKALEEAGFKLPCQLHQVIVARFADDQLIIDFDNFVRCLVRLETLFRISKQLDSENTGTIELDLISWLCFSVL

SUMO-activating enzyme [7] = target: T4, SUMO-activating enzyme (Homo sapiens, UniProt Q9UBT2); assay: inhibitors of in vitro SUMOylation cascade, primary screen, biochemical, HTRF, uHTS (AID 2006); format: protein-complex assay
T4 sequence (Q9UBE0 whole entry): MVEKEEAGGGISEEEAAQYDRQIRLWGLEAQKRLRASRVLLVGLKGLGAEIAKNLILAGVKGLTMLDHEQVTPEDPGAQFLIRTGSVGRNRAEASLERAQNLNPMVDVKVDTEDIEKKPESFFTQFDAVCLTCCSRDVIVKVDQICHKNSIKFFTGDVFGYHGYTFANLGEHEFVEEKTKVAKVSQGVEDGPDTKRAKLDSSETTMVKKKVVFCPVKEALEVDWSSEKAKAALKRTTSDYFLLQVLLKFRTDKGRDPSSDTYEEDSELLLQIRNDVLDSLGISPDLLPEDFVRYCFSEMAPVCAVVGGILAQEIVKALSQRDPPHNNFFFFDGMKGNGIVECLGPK
T4 sequence (Q9UBT2 whole entry): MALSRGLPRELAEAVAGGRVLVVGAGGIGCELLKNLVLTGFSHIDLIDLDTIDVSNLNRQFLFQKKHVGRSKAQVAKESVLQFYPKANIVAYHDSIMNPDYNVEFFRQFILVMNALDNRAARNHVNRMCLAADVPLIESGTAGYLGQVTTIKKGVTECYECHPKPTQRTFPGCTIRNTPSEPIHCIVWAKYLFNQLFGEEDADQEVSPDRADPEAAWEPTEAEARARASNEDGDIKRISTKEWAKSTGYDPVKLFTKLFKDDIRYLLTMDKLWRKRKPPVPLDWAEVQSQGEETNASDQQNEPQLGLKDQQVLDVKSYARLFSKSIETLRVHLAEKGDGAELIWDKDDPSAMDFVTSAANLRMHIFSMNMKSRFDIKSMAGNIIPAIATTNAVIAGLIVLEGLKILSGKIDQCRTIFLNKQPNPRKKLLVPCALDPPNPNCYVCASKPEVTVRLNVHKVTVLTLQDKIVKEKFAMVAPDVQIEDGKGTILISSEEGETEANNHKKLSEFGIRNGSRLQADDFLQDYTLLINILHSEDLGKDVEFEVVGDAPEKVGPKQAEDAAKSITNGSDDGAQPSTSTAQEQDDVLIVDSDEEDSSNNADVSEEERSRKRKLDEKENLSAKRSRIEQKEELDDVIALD

Cytochrome P450 2C19 = Cytochrome P450 2C19 (Homo sapiens, UniProt P33261); assay: Cytochrome panel assay with activity outcomes. Panel member name: p450-cyp2c19 Compounds with AC50 equal or less than 10 uM are considered active; format: functional; conditions: read-out: AC50
Sequence of Cytochrome P450 2C19 (P33261 whole entry): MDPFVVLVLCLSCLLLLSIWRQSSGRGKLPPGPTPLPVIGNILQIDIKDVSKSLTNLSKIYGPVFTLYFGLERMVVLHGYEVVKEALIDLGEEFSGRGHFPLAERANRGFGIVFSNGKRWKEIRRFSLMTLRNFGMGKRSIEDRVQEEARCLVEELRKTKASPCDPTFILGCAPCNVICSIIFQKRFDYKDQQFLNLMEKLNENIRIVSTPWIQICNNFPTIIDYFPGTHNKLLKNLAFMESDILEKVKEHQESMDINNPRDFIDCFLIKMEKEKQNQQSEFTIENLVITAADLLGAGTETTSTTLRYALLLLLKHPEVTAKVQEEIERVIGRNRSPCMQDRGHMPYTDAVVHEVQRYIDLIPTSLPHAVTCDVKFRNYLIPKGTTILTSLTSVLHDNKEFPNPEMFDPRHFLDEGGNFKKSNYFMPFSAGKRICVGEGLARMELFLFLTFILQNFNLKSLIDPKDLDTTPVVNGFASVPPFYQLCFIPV

[8] = growth suppression of PTEN-null colon cells, dose response, cell-based, HCT116 PTEN knockout (AID 1047); format: functional;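 note: HCT116 colon tumor cells with PTEN knocked out; cells exposed to compound for 60 hours before readout; potency for loss of cell viability measured by luminescence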
Cytochrome P450 2C9 = Cytochrome P450 2C9 (Homo sapiens, UniProt P11712)
Sequence of Cytochrome P450 2C9 (P11712 whole entry): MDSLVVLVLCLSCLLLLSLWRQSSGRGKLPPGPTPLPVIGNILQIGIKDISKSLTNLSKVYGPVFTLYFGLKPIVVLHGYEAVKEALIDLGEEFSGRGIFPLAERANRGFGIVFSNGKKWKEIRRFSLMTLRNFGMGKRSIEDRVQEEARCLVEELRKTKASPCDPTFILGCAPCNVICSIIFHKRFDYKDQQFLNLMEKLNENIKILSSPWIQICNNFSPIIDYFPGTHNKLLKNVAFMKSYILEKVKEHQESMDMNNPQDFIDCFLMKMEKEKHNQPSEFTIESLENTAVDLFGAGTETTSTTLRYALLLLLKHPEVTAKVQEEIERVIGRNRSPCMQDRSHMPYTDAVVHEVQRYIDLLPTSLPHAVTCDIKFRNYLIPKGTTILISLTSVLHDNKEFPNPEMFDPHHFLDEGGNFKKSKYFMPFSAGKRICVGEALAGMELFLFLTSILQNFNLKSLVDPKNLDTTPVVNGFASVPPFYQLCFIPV

SUMO-activating enzyme [9] = target: T4, SUMO-activating enzyme; assay: SUMOylation inhibitor hit validation, confirmation, SUMOylation inhibitor project, biochemical, AlphaScreen (AID 2018); format: functional
[10] = target: Dual specificity tyrosine-phosphorylation-regulated kinase 1A (Rattus norvegicus, UniProt Q63470); format: biochemical, Homo sapiens
Leucine aminopeptidase = target: T5, Leucine aminopeptidase (Plasmodium falciparum 3D7, UniProt Q8IL11); assay: P. falciparum M17LAP inhibitors, primary screen, biochemical, fluorogenic H-Leu-NHMec substrate, 1536-well (AID 1619); format: functional
T5 sequence (Q8IL11 whole entry): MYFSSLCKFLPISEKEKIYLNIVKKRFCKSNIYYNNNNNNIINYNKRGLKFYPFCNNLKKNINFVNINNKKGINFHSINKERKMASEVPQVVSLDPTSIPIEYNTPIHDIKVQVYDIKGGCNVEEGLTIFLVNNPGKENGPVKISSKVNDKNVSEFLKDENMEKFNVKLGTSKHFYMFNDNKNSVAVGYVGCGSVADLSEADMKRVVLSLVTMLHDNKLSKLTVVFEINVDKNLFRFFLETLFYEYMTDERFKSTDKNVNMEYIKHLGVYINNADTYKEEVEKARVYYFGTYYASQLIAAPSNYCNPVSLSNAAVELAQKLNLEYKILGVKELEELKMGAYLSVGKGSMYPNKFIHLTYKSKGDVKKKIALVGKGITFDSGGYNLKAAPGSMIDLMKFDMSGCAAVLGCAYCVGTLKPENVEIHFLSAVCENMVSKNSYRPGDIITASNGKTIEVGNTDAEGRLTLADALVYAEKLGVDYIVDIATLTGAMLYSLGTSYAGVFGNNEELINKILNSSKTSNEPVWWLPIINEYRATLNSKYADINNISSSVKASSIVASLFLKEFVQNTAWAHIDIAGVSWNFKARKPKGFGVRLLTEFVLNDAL

H9c2 = assay: cells; format: functional, cell-based; conditions: Rattus norvegicus, H9c2, Myocardium;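 note: confirmatory concentration-response retest of ultra-high-throughput screening hits for modulation of myocardial damage; cell death induced by hydrogen peroxide oxidative stress; compound pretreatment for 60 min then peroxide exposure for 2 h; potency is for protecting the cells against peroxide damage rather than for killing them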
[11] = target: Vascular endothelial growth factor receptor 2 (Homo sapiens, UniProt P35968); format: functional
Sequence of Vascular endothelial growth factor receptor 2 (P35968 whole entry): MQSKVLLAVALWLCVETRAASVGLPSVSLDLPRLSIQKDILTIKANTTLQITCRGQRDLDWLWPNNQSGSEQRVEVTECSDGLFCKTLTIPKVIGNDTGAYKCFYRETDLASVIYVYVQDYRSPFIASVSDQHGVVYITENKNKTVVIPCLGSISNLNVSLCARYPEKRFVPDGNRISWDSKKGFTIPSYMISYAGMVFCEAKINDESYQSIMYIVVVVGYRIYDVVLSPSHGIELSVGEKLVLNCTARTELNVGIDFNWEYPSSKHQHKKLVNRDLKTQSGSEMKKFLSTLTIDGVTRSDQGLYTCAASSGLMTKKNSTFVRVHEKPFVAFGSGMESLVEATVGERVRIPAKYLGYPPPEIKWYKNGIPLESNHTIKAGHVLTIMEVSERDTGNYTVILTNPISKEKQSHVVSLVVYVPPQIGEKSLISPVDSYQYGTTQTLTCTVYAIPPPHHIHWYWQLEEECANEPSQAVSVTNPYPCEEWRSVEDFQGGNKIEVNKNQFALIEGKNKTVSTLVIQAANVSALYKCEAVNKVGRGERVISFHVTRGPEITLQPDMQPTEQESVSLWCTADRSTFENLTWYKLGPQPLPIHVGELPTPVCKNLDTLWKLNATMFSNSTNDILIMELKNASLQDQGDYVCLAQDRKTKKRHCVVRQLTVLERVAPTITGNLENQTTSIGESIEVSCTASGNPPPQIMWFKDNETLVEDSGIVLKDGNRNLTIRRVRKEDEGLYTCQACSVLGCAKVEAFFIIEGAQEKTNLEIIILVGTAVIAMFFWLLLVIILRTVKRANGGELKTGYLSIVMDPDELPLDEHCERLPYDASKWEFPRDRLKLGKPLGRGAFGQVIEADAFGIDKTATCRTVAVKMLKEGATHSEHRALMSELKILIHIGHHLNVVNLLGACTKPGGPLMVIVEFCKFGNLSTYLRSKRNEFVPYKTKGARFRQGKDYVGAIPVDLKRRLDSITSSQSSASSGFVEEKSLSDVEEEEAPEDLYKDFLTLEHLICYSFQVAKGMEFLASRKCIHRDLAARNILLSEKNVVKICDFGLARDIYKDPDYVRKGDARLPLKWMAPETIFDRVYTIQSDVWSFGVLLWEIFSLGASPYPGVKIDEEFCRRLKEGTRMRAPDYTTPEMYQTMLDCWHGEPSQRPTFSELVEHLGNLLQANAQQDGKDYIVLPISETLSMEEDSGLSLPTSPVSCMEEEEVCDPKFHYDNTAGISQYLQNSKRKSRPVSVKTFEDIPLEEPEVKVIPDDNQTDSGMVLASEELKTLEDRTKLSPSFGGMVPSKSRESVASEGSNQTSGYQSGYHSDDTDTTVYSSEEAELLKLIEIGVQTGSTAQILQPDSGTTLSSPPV

Aurora kinase B = Aurora kinase B (Homo sapiens, UniProt Q96GD4); format: functional
Sequence of Aurora kinase B (Q96GD4 whole entry): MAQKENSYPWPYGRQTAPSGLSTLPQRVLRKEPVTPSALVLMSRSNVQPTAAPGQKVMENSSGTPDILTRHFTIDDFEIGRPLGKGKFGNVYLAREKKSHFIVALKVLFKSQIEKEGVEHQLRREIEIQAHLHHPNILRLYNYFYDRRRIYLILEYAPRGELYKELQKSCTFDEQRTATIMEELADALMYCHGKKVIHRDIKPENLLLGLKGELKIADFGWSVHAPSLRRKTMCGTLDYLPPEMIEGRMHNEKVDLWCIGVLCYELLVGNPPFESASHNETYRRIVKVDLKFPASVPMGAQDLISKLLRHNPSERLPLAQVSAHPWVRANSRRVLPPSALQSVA

Aurora kinase A = target: T6, Aurora kinase A (Homo sapiens, UniProt O14965); format: functional;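 note: value from the Navigating the Kinome kinase panel profiling, panel entry STK6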
T6 sequence (O14965 whole entry): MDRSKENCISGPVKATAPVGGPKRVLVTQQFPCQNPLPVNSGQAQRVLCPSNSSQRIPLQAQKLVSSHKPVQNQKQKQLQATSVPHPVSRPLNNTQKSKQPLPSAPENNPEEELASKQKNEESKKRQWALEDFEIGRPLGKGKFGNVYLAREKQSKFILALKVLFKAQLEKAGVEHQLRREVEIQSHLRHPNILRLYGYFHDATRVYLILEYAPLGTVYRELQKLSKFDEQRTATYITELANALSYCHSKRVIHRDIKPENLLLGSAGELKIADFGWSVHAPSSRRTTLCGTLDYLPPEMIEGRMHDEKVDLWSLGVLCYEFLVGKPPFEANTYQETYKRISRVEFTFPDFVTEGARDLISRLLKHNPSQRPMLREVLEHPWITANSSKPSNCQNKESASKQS

[12] = intracellular Trypanosoma cruzi inhibitors in host cells – cell-based, plate reader, cherry-pick samples, set 3, dose response (AID 651818); format: functional;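 note: compounds incubated with infected cells for about four days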
[13] = cytotoxicity toward NIH3T3 fibroblasts, dose response, counter-screen, cell-based, ATP luminescence, mouse fibroblasts (AID 2010); format: functional;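 note: cells exposed to compound for about 90 hours before reading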
[14] = inhibitors of intracellular T. cruzi replication, confirmation, NIH3T3 host cells, beta-gal luminescence (AID 2044); format: functional, cell-based;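 note: intracellular parasites grown in NIH/3T3 mouse fibroblasts as host cells; luminescent beta-galactosidase reporter signal from transgenic T. cruzi replicating inside host cells; inhibitors lower the luminescence signal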

CC(=O)c1ccc(NC(=O)Nc2ccc3c(c2)nc(C)n3C)cc1
AC50 (HeLa): 42.9 µM (active)

CCCCCC(=O)Nc1ccccc1N1CCN(c2ccccc2)CC1
IC50 (Cysteine protease ATG4B): 5.74 µM (active)
IC50 (Phospholipase A2): 4.38 µM (active)

COc1ccc2ncc(S(=O)(=O)c3ccccc3)c(N3CCC4(CC3)OCCO4)c2c1
IC50 [1]: 14.5 µM (active)

O=C(Nc1nnc(C2CC2)s1)c1ccc(Cl)nc1
IC50 [2]: > 80 µM (inactive)

CC(=O)c1ccc(N2CCN(c3ccnc4cc(Cl)ccc34)CC2)cc1
EC50 [3]: > 160 µM (inactive)
EC50 [4]: 4.05 µM (active)
AC50 (HEK293): 54.4 µM (active)

Cc1ccc(C(=O)Nc2ncc3c(Cl)cccc3n2)cc1
AC50 (HEK293): 2.46 µM (active)

CCC(=O)NC(c1cc(Cl)c2cccnc2c1O)C(C)C (stereo not given)
AC50 (INS1): 1.86 µM (active)
AC50 (HEK293): 6.68 µM (active)

Nn1c(CSc2nc3ccccc3o2)nnc1CSc1nc2ccccc2o1
IC50 [2]: > 80 µM (inactive)

COc1ccc(-n2c(CNc3ccc(C)cc3)nnc2SCC(=O)Nc2nc(-c3ccccc3)cs2)cc1
EC50 [5]: 2.75 µM (active)
IC50 [6]: 21.4 µM (active)
IC50 (SUMO-activating enzyme [7]): 21.9 µM (active)
AC50 (Cytochrome P450 2C19): 0.355 µM (inconclusive)
AC50 (INS1): 6.07 µM (active)
EC50 [8]: 2.49 µM (active)
AC50 (Cytochrome P450 2C9): 7.94 µM (inconclusive)
IC50 (SUMO-activating enzyme [9]): 39.7 µM (active)

CC(=O)c1ccc2c(c1)Cc1cc(C(C)=O)ccc1-2
AC50 (HeLa): 96.8 µM (active)

COc1ccc(N2Nc3[nH]nc(N)c3N2)cc1
AC50 [10]: 3.12 µM (active)
IC50 (Leucine aminopeptidase): 10.4 µM (active)

O=C(C1CCCN(c2ncnc3c2nc2n3CCCCC2)C1)N1CCN(c2ccc(F)cc2)CC1 (stereo not given)
IC50 [1]: 20.9 µM (active)

c1cc(-c2cc3cc4c(cc3cn2)OCO4)cs1
AC50 (HeLa): 141 µM (active)

CC(=O)c1ccc(N2CCN(C(=O)C3CCCN(c4ncnc5c4nc4n5CCCCC4)C3)CC2)cc1 (stereo not given)
IC50 [1]: 18.2 µM (active)
IC50 (H9c2): > 79 µM (inactive)

CCCCN1CCN(c2ccc(-c3nc4c(C(N)=O)cccc4[nH]3)cc2)CC1
Ki [11]: > 5.01 µM (inactive)
Ki (Aurora kinase B): 0.0501 µM (active)
Ki (Aurora kinase A): 0.794 µM (active)

COc1ccc(-c2cc(-c3ccccc3)c3cc(Cl)ccc3n2)cc1
Ki (Aurora kinase B): 0.251 µM (active)
Ki (Aurora kinase A): 0.0501 µM (active)

NC(=NO)c1ccccc1S(=O)(=O)Nc1ccc2c(c1)C(=NO)c1ccccc1-2
Ki [11]: > 5.01 µM (inactive)
Ki (Aurora kinase B): 0.0251 µM (active)
Ki (Aurora kinase A): 0.631 µM (active)

C[C@H]1CN([C@@H](C)CO)C(=O)c2cccc(NC(=O)c3ccncc3)c2O[C@@H]1CN(C)Cc1ccc2c(c1)OCO2
AC50 [12]: 0.277 µM (active)

Cc1ccc(S(=O)(=O)Nc2ccc3c(c2)CC(=O)N([C@H](C)CO)C[C@@H](C)[C@H](CN(C)Cc2ccc4c(c2)OCO4)O3)cc1
AC50 [12]: 4.35 µM (active)

C[C@@H]1CN([C@H](C)CO)C(=O)c2cccc(NC(=O)Nc3ccc(C(F)(F)F)cc3)c2O[C@@H]1CN(C)C(=O)NC1CCCCC1
AC50 [12]: 5.14 µM (active)

NC(=O)N/N=C/c1ccc(-n2nncc2-c2ccc(Cl)cc2)cc1
IC50 [2]: > 80 µM (inactive)

Oc1c(Br)cc(Br)cc1/C=N/n1c(S)nnc1-c1ccccc1
IC50 (Cysteine protease ATG4B): 8.08 µM (active)
IC50 (Phospholipase A2): 33.5 µM (inactive)

C/C(Cn1nnc([N+](=O)[O-])n1)=N\NC(=O)c1cccc(Cl)c1
EC50 [13]: > 60 µM (not active)
EC50 [14]: 0.416 µM (active)
IC50 [2]: > 80 µM (inactive)

C[N+](C)(CCOc1ccccc1)Cc1ccccc1
AC50 [10]: 10.5 µM (active)
